Experimental data from patent US12708665B2, “Anti-IL-1β antibody therapy in arrhythmogenic cardiomyopathy (ACM)” (Beth Israel Deaconess Medical Center, Inc., priority 2019, dated 2026).
“Also recorded” adds a separate entry of the source.

Test system: Dsg2^mut/mut mice
Assay: Cytokine arrays, cytokine expression in hearts of Dsg2^mut/mut mice treated with Bay 11-7082
Type: in vivo
From the text: Quantitative data (mean±SEM; n=5) for expression of selected cytokines in hearts of vehicle-treated wildtype (WT) mice, Dsg2^mut/mut mice and Dsg2^mut/mut mice treated with Bay 11-7082. * P<0.05 compared to WT; †P<0.05 for treated vs. untreated Dsg2^mut/mut mice.
To characterize production of chemical mediators of the immune response in ACM, we used arrays to measure 111 different cytokines in the hearts of Dsg2^mut/mut mice and compared the amounts to those measured in the hearts of WT mice and Dsg2^mut/mut mice treated with Bay 11-7082. We observed substantial expression of multiple cytokines in the hearts of Dsg2^mut/mut mice. […] Powerful inflammatory mediators were expressed in Dsg2^mut/mut hearts including IL-1β (up by ~13-fold compared to WT hearts), IFNγ (~5-fold), IL-12 (~6-fold) and TNFα (~2-fold). […] Finally, there were increases in some molecules that fulfill anti-inflammatory roles such as IL-1Ra (up by ~4-fold).

[1] = cytokine expression level, mouse heart

Compound: Cc1ccc(S(=O)(=O)/C=C/C#N)cc1 [Bay11-7082]
- MMP-2, Dsg2^mut/mut (Bay11-7082) vs Dsg2^mut/mut [1]: 1-2
- MMP-2, Dsg2^mut/mut (Bay11-7082) vs WT [1]: 4-6
- MMP-3, Dsg2^mut/mut (Bay11-7082) vs Dsg2^mut/mut [1]: 1-2
- MMP-3, Dsg2^mut/mut (Bay11-7082) vs WT [1]: <1
- MMP-9, Dsg2^mut/mut (Bay11-7082) vs Dsg2^mut/mut [1]: <1
- MMP-9, Dsg2^mut/mut (Bay11-7082) vs WT [1]: <1
- Myeloperoxidase, Dsg2^mut/mut (Bay11-7082) vs Dsg2^mut/mut [1]: <1
- Myeloperoxidase, Dsg2^mut/mut (Bay11-7082) vs WT [1]: 2-4
- Osteopontin (OPN), Dsg2^mut/mut (Bay11-7082) vs Dsg2^mut/mut [1]: <1
- Osteopontin (OPN), Dsg2^mut/mut (Bay11-7082) vs WT [1]: 4-6
- Osteoprotegerin/TNFRSF11B, Dsg2^mut/mut (Bay11-7082) vs Dsg2^mut/mut [1]: <1
- Osteoprotegerin/TNFRSF11B, Dsg2^mut/mut (Bay11-7082) vs WT [1]: <1
- P-Selectin/CD62P, Dsg2^mut/mut (Bay11-7082) vs Dsg2^mut/mut [1]: <1
- P-Selectin/CD62P, Dsg2^mut/mut (Bay11-7082) vs WT [1]: >10
- PD-EGF/Thymidine phosphorylase, Dsg2^mut/mut (Bay11-7082) vs Dsg2^mut/mut [1]: <1
- PD-EGF/Thymidine phosphorylase, Dsg2^mut/mut (Bay11-7082) vs WT [1]: <1
- PDGF-BB, Dsg2^mut/mut (Bay11-7082) vs Dsg2^mut/mut [1]: <1
- PDGF-BB, Dsg2^mut/mut (Bay11-7082) vs WT [1]: 1-2
- Pentraxin 2/SAP, Dsg2^mut/mut (Bay11-7082) vs Dsg2^mut/mut [1]: <1
- Pentraxin 2/SAP, Dsg2^mut/mut (Bay11-7082) vs WT [1]: 1-2
- Pentraxin 3/TSG-14, Dsg2^mut/mut (Bay11-7082) vs Dsg2^mut/mut [1]: <1
- Pentraxin 3/TSG-14, Dsg2^mut/mut (Bay11-7082) vs WT [1]: <1
- Periostin/OSF-2, Dsg2^mut/mut (Bay11-7082) vs Dsg2^mut/mut [1]: <1
- Periostin/OSF-2, Dsg2^mut/mut (Bay11-7082) vs WT [1]: <1
- Pref-1/DLK-1/FA1, Dsg2^mut/mut (Bay11-7082) vs Dsg2^mut/mut [1]: <1
- Pref-1/DLK-1/FA1, Dsg2^mut/mut (Bay11-7082) vs WT [1]: 6-10
- Proliferin, Dsg2^mut/mut (Bay11-7082) vs Dsg2^mut/mut [1]: <1
- Proliferin, Dsg2^mut/mut (Bay11-7082) vs WT [1]: 6-10
- Proprotein Convertase 9/PCSK9, Dsg2^mut/mut (Bay11-7082) vs Dsg2^mut/mut [1]: 1-2
- Proprotein Convertase 9/PCSK9, Dsg2^mut/mut (Bay11-7082) vs WT [1]: <1
- RAGE, Dsg2^mut/mut (Bay11-7082) vs Dsg2^mut/mut [1]: <1
- RAGE, Dsg2^mut/mut (Bay11-7082) vs WT [1]: <1
- RBP4, Dsg2^mut/mut (Bay11-7082) vs Dsg2^mut/mut [1]: <1
- RBP4, Dsg2^mut/mut (Bay11-7082) vs WT [1]: 1-2
- Reg3G, Dsg2^mut/mut (Bay11-7082) vs Dsg2^mut/mut [1]: <1
- Reg3G, Dsg2^mut/mut (Bay11-7082) vs WT [1]: 6-10
- Resistin, Dsg2^mut/mut (Bay11-7082) vs Dsg2^mut/mut [1]: <1
- Resistin, Dsg2^mut/mut (Bay11-7082) vs WT [1]: 2-4
- Serpin E1/PAI-1, Dsg2^mut/mut (Bay11-7082) vs Dsg2^mut/mut [1]: <1
- Serpin E1/PAI-1, Dsg2^mut/mut (Bay11-7082) vs WT [1]: 6-10
- Serpin F1/PEDF, Dsg2^mut/mut (Bay11-7082) vs Dsg2^mut/mut [1]: <1
- Serpin F1/PEDF, Dsg2^mut/mut (Bay11-7082) vs WT [1]: <1
- TIM-1/KIM-1/HAVCR, Dsg2^mut/mut (Bay11-7082) vs Dsg2^mut/mut [1]: 1-2
- TIM-1/KIM-1/HAVCR, Dsg2^mut/mut (Bay11-7082) vs WT [1]: <1
- TNF-α, Dsg2^mut/mut (Bay11-7082) vs Dsg2^mut/mut [1]: <1
- TNF-α, Dsg2^mut/mut (Bay11-7082) vs WT [1]: 1-2
- Thrombopoeitin, Dsg2^mut/mut (Bay11-7082) vs Dsg2^mut/mut [1]: 1-2
- Thrombopoeitin, Dsg2^mut/mut (Bay11-7082) vs WT [1]: <1
- VCAM-1/CD106, Dsg2^mut/mut (Bay11-7082) vs Dsg2^mut/mut [1]: 1-2
- VCAM-1/CD106, Dsg2^mut/mut (Bay11-7082) vs WT [1]: 6-10
- VEGF, Dsg2^mut/mut (Bay11-7082) vs Dsg2^mut/mut [1]: 1-2
- VEGF, Dsg2^mut/mut (Bay11-7082) vs WT [1]: <1
- WISP-1/CCN4, Dsg2^mut/mut (Bay11-7082) vs Dsg2^mut/mut [1]: <1
- WISP-1/CCN4, Dsg2^mut/mut (Bay11-7082) vs WT [1]: <1
- sICAM-1 (CD54), Dsg2^mut/mut (Bay11-7082) vs Dsg2^mut/mut [1]: <1
- sICAM-1 (CD54), Dsg2^mut/mut (Bay11-7082) vs WT [1]: 1-2
- increased expression of cytokines in Dsg2^mut/mut hearts (treated vs untreated Dsg2^mut/mut mice, FIG. 1, result in words): attenuation; also recorded: blunted or fully normalized
